Measurements published in patent publication US5728710A, “Rapamycin derivatives” (SmithKline Beecham Corporation, priority 1995, dated 1998).

system: Saccharomyces cerevisiae; assay: Assay for Antifungal Activity (agar well zone of inhibition); format: cell-based; details: zones of inhibition after 48 hours, YPD agar
Method: Yeast organism (Saccharomyces cerevisiae) in logarithmic growth were plated on complete agar medium (YPD). Compounds dissolved in an appropriate aqueous or organic solvent were placed in wells punched in the agar. Plates were incubated for 48 hours and zones of inhibition were measured.

Compound | Antifungal IC12
7-Demethoxy-7 (S)-(2' 4'-dimethoxyphenyl)-rapamycin [Example 15] | < 500 ng/mL
COc1ccc(C2CC3CCC(C)C(O)(O3)C(=O)C(=O)N3CCCCC3C(=O)OC(C(C)CC3CCC(O)C(OC)C3)CC(=O)C(C)C=C(C)C(O)C(OC)C(=O)C(C)CC(C)C=CC=CC=C2C)c(OC)c1 [Example 16, 7-Demethoxy-7 (R)-2',4'-dimethoxyphenyl)-rapamycin] | < 500 ng/mL

system: Spleen cells from BDF1 female mice; assay: Mitogenesis Assay for Immunosuppressive Activity (concanavalin A, 3H-thymidine); format: cell-based; details: Concanavalin A 5 μg/ml, 72 hours at 37° C., 3H-thimidine uptake last 18 hours; read-out: Mitogenesis IC50
Method: Spleen cells from BDF1 female mice were established in RPMI with 10% fetal calf serum at 5×10^6 /mL. One hundred […] of this suspension (5×10^5 cells) were dispensed into 96-well round-bottomed microtiter plates (Linbro, Flow Laboratories). Concanavalin A (5 μg/ml) was added as the mitogenic stimulus, and the final volume in the microtiter wells was adjusted to 200 μL with RPMI. Cell cultures were incubated for 72 hours at 37° C. in a 5% CO2 atmosphere and pulsed with 0.5 μCi ^3 H-thymidine (specific activity […]) for the last 18 hours of the 72 hour culture. The cells were harvested on an automated multiple sample harvester and cell-associated radioactivity counted in a Beckman liquid scintillation counter. The results are expressed as the mean values derived from quadruplicate measurements. Cell viability was determined by trypan blue exclusion after 72 hours of incubation. Compounds to be tested were added to the microtiter plates at the appropriate dilutions prior to the addition of cells.

Compound | IC50
7-Demethoxy-7 (S)-(2' 4'-dimethoxyphenyl)-rapamycin [Example 15] | < 500 nM
COc1ccc(C2CC3CCC(C)C(O)(O3)C(=O)C(=O)N3CCCCC3C(=O)OC(C(C)CC3CCC(O)C(OC)C3)CC(=O)C(C)C=C(C)C(O)C(OC)C(=O)C(C)CC(C)C=CC=CC=C2C)c(OC)c1 [Example 16, 7-Demethoxy-7 (R)-2',4'-dimethoxyphenyl)-rapamycin] | < 1000 nM

same assay, conditions: Mus musculus, read-out: Mitogenesis IC50

Compound | IC50
CO[C@@H]1C[C@@H]2CC[C@@H](C)[C@@](O)(O2)C(=O)C(=O)N2CCCC[C@H]2C(=O)O[C@H]([C@H](C)C[C@@H]2CC[C@@H](O)[C@H](OC)C2)CC(=O)[C@H](C)/C=C(\C)[C@@H](O)[C@@H](OC)C(=O)[C@H](C)C[C@H](C)/C=C/C=C/C=C/1C [Example 20, 7-Epirapamycin] | < 500 nM

same assay, conditions: Mus musculus; Concanavalin A 5 μg/ml, 72 hours at 37° C., 3H-thimidine uptake last 18 hours; read-out: Mitogenesis IC50

Compound | IC50
C=CC[C@H]1C[C@@H]2CC[C@@H](C)[C@@](O)(O2)C(=O)C(=O)N2CCCC[C@H]2C(=O)O[C@H]([C@H](C)C[C@@H]2CC[C@@H](O)[C@H](OC)C2)CC(=O)[C@H](C)/C=C(\C)[C@@H](O)[C@@H](OC)C(=O)[C@H](C)C[C@H](C)/C=C/C=C/C=C/1C [Example 13, 7-Demethoxy-7(S)-allylrapamycin] | < 500 nM
CCO[C@@H]1C[C@@H]2CC[C@@H](C)[C@@](O)(O2)C(=O)C(=O)N2CCCC[C@H]2C(=O)O[C@H]([C@H](C)C[C@@H]2CC[C@@H](O)[C@H](OC)C2)CC(=O)[C@H](C)/C=C(\C)[C@@H](O)[C@@H](OC)C(=O)[C@H](C)C[C@H](C)/C=C/C=C/C=C/1C [Example 2, 7-Demethoxy-7(R)-ethoxyrapamycin] | < 500 nM
CO[C@@H]1C[C@H](C[C@@H](C)[C@@H]2CC(=O)[C@H](C)/C=C(\C)[C@@H](O)[C@@H](OC)C(=O)[C@H](C)C[C@H](C)/C=C/C=C/C=C(\C)[C@H](c3ccco3)C[C@@H]3CC[C@@H](C)[C@@](O)(O3)C(=O)C(=O)N3CCCC[C@H]3C(=O)O2)CC[C@H]1O [Example 14, 7-Demethoxy-7(R)-(2'-furanyl)rapamycin] | < 500 nM
CO[C@@H]1C[C@H](C[C@@H](C)[C@@H]2CC(=O)[C@H](C)/C=C(\C)[C@@H](O)[C@@H](OC)C(=O)[C@H](C)C[C@H](C)/C=C/C=C/C=C(\C)[C@H](SC)C[C@@H]3CC[C@@H](C)[C@@](O)(O3)C(=O)C(=O)N3CCCC[C@H]3C(=O)O2)CC[C@H]1O [Example 10, 7-Demethoxy-7(R)-methylthiorapamycin] | < 500 nM
CO[C@@H]1C[C@H](C[C@@H](C)[C@@H]2CC(=O)[C@H](C)/C=C(\C)[C@@H](O)[C@@H](OC)C(=O)[C@H](C)C[C@H](C)/C=C/C=C/C=C(\C)[C@@H](SC)C[C@@H]3CC[C@@H](C)[C@@](O)(O3)C(=O)C(=O)N3CCCC[C@H]3C(=O)O2)CC[C@H]1O [Example 9, 7-Demethoxy-7(S)-methylthiorapamycin] | < 500 nM
CO[C@@H]1C[C@H](C[C@@H](C)[C@@H]2CC(=O)[C@H](C)/C=C(\C)[C@@H](O)[C@@H](OC)C(=O)[C@H](C)C[C@H](C)/C=C/C=C/C=C(\C)[C@H](OCCO)C[C@@H]3CC[C@@H](C)[C@@](O)(O3)C(=O)C(=O)N3CCCC[C@H]3C(=O)O2)CC[C@H]1O [Example 5, 7-Demethoxy-7(R)-(2-hydroxyethoxy)rapamycin] | < 500 nM
CCO[C@H]1C[C@@H]2CC[C@@H](C)[C@@](O)(O2)C(=O)C(=O)N2CCCC[C@H]2C(=O)O[C@H]([C@H](C)C[C@@H]2CC[C@@H](O)[C@H](OC)C2)CC(=O)[C@H](C)/C=C(\C)[C@@H](O)[C@@H](OC)C(=O)[C@H](C)C[C@H](C)/C=C/C=C/C=C/1C [Example 1, 7-Demethoxy-7(S)-ethoxyrapamycin] | < 500 nM
CO[C@@H]1C[C@H](C[C@@H](C)[C@@H]2CC(=O)[C@H](C)/C=C(\C)[C@@H](O)[C@@H](OC)C(=O)[C@H](C)C[C@H](C)/C=C/C=C/C=C(\C)[C@H](O)C[C@@H]3CC[C@@H](C)[C@@](O)(O3)C(=O)C(=O)N3CCCC[C@H]3C(=O)O2)CC[C@H]1O [Example 19, 7-O-Demethyl-7-Epirapamycin] | < 500 nM
CO[C@@H]1C[C@H](C[C@@H](C)[C@@H]2CC(=O)[C@H](C)/C=C(\C)[C@@H](O)[C@@H](OC)C(=O)[C@H](C)C[C@H](C)/C=C/C=C/C=C(\C)[C@H](OC(C)=O)C[C@@H]3CC[C@@H](C)[C@@](O)(O3)C(=O)C(=O)N3CCCC[C@H]3C(=O)O2)CC[C@H]1O [Example 6, 7-Demethoxy-7(R)-acetoxyrapamycin] | < 500 nM
CO[C@@H]1C[C@H](C[C@@H](C)[C@@H]2CC(=O)[C@H](C)/C=C(\C)[C@@H](O)[C@@H](OC)C(=O)[C@H](C)C[C@H](C)/C=C/C=C/C=C(\C)[C@@H](O)C[C@@H]3CC[C@@H](C)[C@@](O)(O3)C(=O)C(=O)N3CCCC[C@H]3C(=O)O2)CC[C@H]1O [Example 18, 7-O-Demethylrapamycin] | < 500 nM
CO[C@@H]1C[C@H](C[C@@H](C)[C@@H]2CC(=O)[C@H](C)/C=C(\C)[C@@H](O)[C@@H](OC)C(=O)[C@H](C)C[C@H](C)/C=C/C=C/C=C(\C)[C@@H](OCCO)C[C@@H]3CC[C@@H](C)[C@@](O)(O3)C(=O)C(=O)N3CCCC[C@H]3C(=O)O2)CC[C@H]1O [Example 4, 7-Demethoxy-7(S)-(2-hydroxyethoxy)rapamycin] | < 500 nM
COc1ccc(CO[C@H]2C[C@@H]3CC[C@@H](C)[C@@](O)(O3)C(=O)C(=O)N3CCCC[C@H]3C(=O)O[C@H]([C@H](C)C[C@@H]3CC[C@@H](O)[C@H](OC)C3)CC(=O)[C@H](C)/C=C(\C)[C@@H](O)[C@@H](OC)C(=O)[C@H](C)C[C@H](C)/C=C/C=C/C=C/2C)cc1OC [Example 3, 7-Demethoxy-7(S)-(3,4-dimethoxybenzyloxy)rapamycin] | < 500 nM
CO[C@@H]1C[C@H](C[C@@H](C)[C@@H]2CC(=O)[C@H](C)/C=C(\C)[C@@H](O)[C@@H](OC)C(=O)[C@H](C)C[C@H](C)/C=C/C=C/C=C(\C)[C@@H](Sc3ccccc3)C[C@@H]3CC[C@@H](C)[C@@](O)(O3)C(=O)C(=O)N3CCCC[C@H]3C(=O)O2)CC[C@H]1O [Example 11, 7-Demethoxy-7 (S)-phenylthiorapamycin] | < 500 nM
CO[C@@H]1C[C@H](C[C@@H](C)[C@@H]2CC(=O)[C@H](C)/C=C(\C)[C@@H](O)[C@@H](OC)C(=O)[C@H](C)C[C@H](C)/C=C/C=C/C=C(\C)CC[C@@H]3CC[C@@H](C)[C@@](O)(O3)C(=O)C(=O)N3CCCC[C@H]3C(=O)O2)CC[C@H]1O [Example 8, 7-Demethoxyrapamycin] | < 500 nM
CO[C@@H]1C[C@H](C[C@@H](C)[C@@H]2CC(=O)[C@H](C)/C=C(\C)[C@@H](O)[C@@H](OC)C(=O)[C@H](C)C[C@H](C)/C=C/C=C/C=C(\C)C(=O)C[C@@H]3CC[C@@H](C)[C@@](O)(O3)C(=O)C(=O)N3CCCC[C@H]3C(=O)O2)CC[C@H]1O [Example 17, 7-Demethoxy-7-Oxorapamycin] | < 500 nM
CO[C@@H]1C[C@H](C[C@@H](C)[C@@H]2CC(=O)[C@H](C)/C=C(\C)[C@@H](O)[C@@H](OC)C(=O)[C@H](C)C[C@H](C)/C=C/C=C/C=C(\C)[C@@H](c3ccco3)C[C@@H]3CC[C@@H](C)[C@@](O)(O3)C(=O)C(=O)N3CCCC[C@H]3C(=O)O2)CC[C@H]1O [Example 7, 7-Demethoxy-7(S)-(2'-furanyl)rapamycin] | < 500 nM
